From US9988430B2, “Stable GLP-1 based GLP-1/glucagon receptor co-agonists” (Novo Nordisk A/S, priority 2014, dated 2018)
*1 amine or outer side, *2 acyl side, *3 side chain or, on linkers, in order; H or OH if unused. Where a SMILES comes first, the peptide text is derived from it. Bridges are numbered along the chain shown (N, C = ends). Roman numbers before positions name the chains, in order. Side-chain parts run from the residue outwards. [ ]: non-standard residue; d: D form. The star is where a group is joined. C18 diacid = O=C(O)CCCCCCCCCCCCCCCCC(=O)*; γGlu = O=C(O)[C@H](CCC(=O)[*:2])N[*:1]; Desaminohistidyl = O=C(CCc1c[nH]cn1)*; Ac4c = NC1(C(=O)O)CCC1; AEEA = NCCOCCOCC(=O)O; Aib = CC(C)(N)C(=O)O

biological target: T1, human GLP-1 receptor (Homo sapiens, UniProt P43220); test: Assay (II)(a): GLP-1 receptor binding, [125I]GLP-1 displacement, SPA on BHK membranes; conditions: displacement of [125I]GLP-1, membranes with human GLP-1 receptor; read-out: IC50 GLP-1R
T1 construct: expressed in transfected cells; host or cells: membranes of BHK cells, parent line BHKTS13, clone FCW467-12A
In short: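 Membranes from BHK cells expressing human GLP-1 receptor with WGA SPA beads, [125I]GLP-1(7-36)NH2 (480 pM added solution) and compound in HEPES pH 7.4 buffer with EGTA, MgCl2, Tween 20. Incubated 2 h at 30° C; SPA counts fitted by non-linear regression to IC50 in nM.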

T1 sequence (P43220 24-463): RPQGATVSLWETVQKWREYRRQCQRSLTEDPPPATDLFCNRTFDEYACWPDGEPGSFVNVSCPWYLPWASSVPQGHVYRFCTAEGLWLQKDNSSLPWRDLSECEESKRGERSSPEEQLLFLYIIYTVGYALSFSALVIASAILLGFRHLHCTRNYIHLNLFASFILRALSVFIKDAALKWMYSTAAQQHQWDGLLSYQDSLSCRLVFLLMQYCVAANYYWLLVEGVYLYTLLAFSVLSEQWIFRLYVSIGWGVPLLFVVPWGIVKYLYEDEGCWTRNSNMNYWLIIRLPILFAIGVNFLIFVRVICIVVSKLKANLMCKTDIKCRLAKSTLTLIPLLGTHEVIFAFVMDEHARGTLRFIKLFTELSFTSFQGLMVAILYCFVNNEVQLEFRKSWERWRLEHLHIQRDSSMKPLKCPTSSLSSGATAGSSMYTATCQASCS

Row | IC50 [nM] | SMILES
1 | 0.3 | CC[C@H](C)[C@H](NC(=O)[C@H](Cc1ccccc1)NC(=O)[C@H](CCC(=O)O)NC(=O)[C@H](CCCNC(=N)N)NC(=O)[C@H](C)NC(=O)[C@H](C)NC(=O)[C@H](CCC(N)=O)NC(=O)[C@H](CCC(=O)O)NC(=O)[C@H](CCC(=O)O)NC(=O)[C@H](CC(C)C)NC(=O)[C@H](Cc1ccc(O)cc1)NC(=O)[C@H](CCCCN)NC(=O)[C@H](CO)NC(=O)[C@@H](NC(=O)[C@H](CC(=O)O)NC(=O)[C@H](CO)NC(=O)[C@@H](NC(=O)[C@H](Cc1ccccc1)NC(=O)[C@@H](NC(=O)CNC(=O)[C@H](Cc1c[nH]cn1)NC(=O)C(C)(C)NC(=O)CCc1c[nH]cn1)[C@@H](C)O)[C@@H](C)O)C(C)C)C(=O)N[C@@H](C)C(=O)N[C@@H](Cc1c[nH]c2ccccc12)C(=O)N[C@@H](CC(C)C)C(=O)N[C@@H](CC(C)C)C(=O)N[C@@H](CCCCNC(=O)CC[C@H](NC(=O)CC[C@H](NC(=O)CC[C@H](NC(=O)CC[C@H](NC(=O)CCCCCCCCCCCCCCCCC(=O)O)C(=O)O)C(=O)O)C(=O)O)C(=O)O)C(=O)N[C@H](C(N)=O)[C@@H](C)O [Example 6, N^ε34-[(4S)-4-carboxy-4-[[(4S)-4-carboxy-4-[[(4S)-4-carboxy-4-[[(4S)-4-carboxy-4-(17-carboxyheptadecanoylamino)butanoyl]amino]butanoyl]amino]butanoyl]amino]butanoyl]-[Imp7,Aib8,His9,Lys18,Glu22,Arg26,Leu33,Thr35]-GLP-1-(7-35)-peptide amide] (Desaminohistidyl-[Aib]HGTFTSDVSKYLEEQAAREFIAWLLK([γGlu-γGlu-γGlu-γGlu-C18 diacid])T-NH2)
2 | 0.3 | CC[C@H](C)[C@H](NC(=O)[C@H](Cc1ccccc1)NC(=O)[C@H](CCC(=O)O)NC(=O)[C@H](CCCNC(=N)N)NC(=O)[C@H](C)NC(=O)[C@H](C)NC(=O)[C@H](CCCNC(=N)N)NC(=O)CNC(=O)[C@H](CCC(=O)O)NC(=O)[C@H](CC(C)C)NC(=O)[C@H](Cc1ccc(O)cc1)NC(=O)[C@H](CCCCN)NC(=O)[C@H](CO)NC(=O)[C@@H](NC(=O)[C@H](CC(=O)O)NC(=O)[C@H](CO)NC(=O)[C@@H](NC(=O)[C@H](Cc1ccccc1)NC(=O)[C@@H](NC(=O)CNC(=O)[C@H](Cc1c[nH]cn1)NC(=O)C1(NC(=O)CCc2c[nH]cn2)CCC1)[C@@H](C)O)[C@@H](C)O)C(C)C)C(=O)N[C@@H](C)C(=O)N[C@@H](Cc1c[nH]c2ccccc12)C(=O)N[C@@H](CC(C)C)C(=O)N[C@@H](CC(C)C)C(=O)N[C@@H](CCCCNC(=O)CNC(=O)[C@H](CO)NC(=O)[C@H](CCC(=O)O)NC(=O)CNC(=O)[C@H](CO)NC(=O)CC[C@H](NC(=O)CC[C@H](NC(=O)CCCCCCCCCCCCCCCCC(=O)O)C(=O)O)C(=O)O)C(=O)N[C@H](C(N)=O)[C@@H](C)O [Example 20, N^ε34-[2-[[(2S)-2-[[(2S)-4-carboxy-2-[[2-[[(2S)-2-[[(4S)-4-carboxy-4-[[(4S)-4-carboxy-4-(17-carboxyheptadecanoylamino)butanoyl]amino]butanoyl]amino]-3-hydroxypropanoyl]amino]acetyl]amino]butanoyl]amino]-3-hydroxypropanoyl]amino]acetyl]-[Imp7,Acb8,His9,Lys18,Arg23,Arg26,Leu33,Thr35]-GLP-1-(7-35)-peptide amide] (I: Desaminohistidyl-[Ac4c]HGTFTSDVSKYLEGRAAREFIAWLLKT-NH2 / II: {C18 diacid-γGlu-γGlu}-SGESG; amide I:27-II:C)
3 | 0.5 | CC[C@H](C)[C@H](NC(=O)[C@H](Cc1ccccc1)NC(=O)[C@H](CCC(=O)O)NC(=O)[C@H](CCCNC(=N)N)NC(=O)[C@H](C)NC(=O)[C@H](C)NC(=O)[C@H](CCC(N)=O)NC(=O)[C@H](CCC(=O)O)NC(=O)[C@H](CCC(=O)O)NC(=O)[C@H](CC(C)C)NC(=O)[C@H](Cc1ccc(O)cc1)NC(=O)[C@H](CCCCN)NC(=O)[C@H](CO)NC(=O)[C@@H](NC(=O)[C@H](CC(=O)O)NC(=O)[C@H](CO)NC(=O)[C@@H](NC(=O)[C@H](Cc1ccccc1)NC(=O)[C@@H](NC(=O)CNC(=O)[C@H](Cc1c[nH]cn1)NC(=O)C(C)(C)NC(=O)CCc1c[nH]cn1)[C@@H](C)O)[C@@H](C)O)C(C)C)C(=O)N[C@@H](C)C(=O)N[C@@H](Cc1c[nH]c2ccccc12)C(=O)N[C@@H](CC(C)C)C(=O)N[C@@H](CC(C)C)C(=O)N[C@@H](CCCCNC(=O)COCCOCCNC(=O)COCCOCCNC(=O)CC[C@H](NC(=O)CC[C@H](NC(=O)CCCCCCCCCCCCCCCCC(=O)O)C(=O)O)C(=O)O)C(=O)N[C@H](C(N)=O)[C@@H](C)O [Example 5, N^ε34-[2-[2-[2-[[2-[2-[2-[[(4S)-4-carboxy-4-[[(4S)-4-carboxy-4-(17-carboxyheptadecanoylamino)butanoyl]amino]butanoyl]amino]ethoxy]ethoxy]acetyl]amino]ethoxy]ethoxy]acetyl]-[Imp7,Aib8,His9,Lys18,Glu22,Arg26,Leu33,Thr35]-GLP-1-(7-35)-peptide amide] (Desaminohistidyl-[Aib]HGTFTSDVSKYLEEQAAREFIAWLLK([AEEA-AEEA-γGlu-γGlu-C18 diacid])T-NH2)
4 | 0.5 | CC[C@H](C)[C@H](NC(=O)[C@H](Cc1ccccc1)NC(=O)[C@H](CCC(=O)O)NC(=O)[C@H](CCCNC(=N)N)NC(=O)[C@H](C)NC(=O)[C@H](C)NC(=O)[C@H](CCC(N)=O)NC(=O)[C@H](CCC(=O)O)NC(=O)[C@H](CCC(=O)O)NC(=O)[C@H](CC(C)C)NC(=O)[C@H](Cc1ccc(O)cc1)NC(=O)[C@H](CCCNC(=N)N)NC(=O)[C@H](CO)NC(=O)[C@@H](NC(=O)[C@H](CC(=O)O)NC(=O)[C@H](CO)NC(=O)[C@@H](NC(=O)[C@H](Cc1ccccc1)NC(=O)[C@@H](NC(=O)CNC(=O)[C@H](Cc1c[nH]cn1)NC(=O)C(C)(C)NC(=O)CCc1c[nH]cn1)[C@@H](C)O)[C@@H](C)O)C(C)C)C(=O)N[C@@H](C)C(=O)N[C@@H](Cc1c[nH]c2ccccc12)C(=O)N[C@@H](CC(C)C)C(=O)N[C@@H](CC(C)C)C(=O)N[C@@H](CCCCNC(=O)CNC(=O)[C@H](CO)NC(=O)[C@H](CCC(=O)O)NC(=O)CNC(=O)[C@H](CO)NC(=O)CC[C@H](NC(=O)CC[C@H](NC(=O)CCCCCCCCCCCCCCCCC(=O)O)C(=O)O)C(=O)O)C(=O)N[C@H](C(N)=O)[C@@H](C)O [Example 7, N^ε34-[2-[[(2S)-2-[[(2S)-4-carboxy-2-[[2-[[(2S)-2-[[(4S)-4-carboxy-4-[[(4S)-4-carboxy-4-(17-carboxyheptadecanoylamino)butanoyl]amino]butanoyl]amino]-3-hydroxypropanoyl]amino]acetyl]amino]butanoyl]amino]-3-hydroxypropanoyl]amino]acetyl]-[Imp7,Aib8,His9,Arg18,Glu22,Arg26,Leu33,Thr35]-GLP-1-(7-35)-peptide amide] (I: Desaminohistidyl-[Aib]HGTFTSDVSRYLEEQAAREFIAWLLKT-NH2 / II: {C18 diacid-γGlu-γGlu}-SGESG; amide I:27-II:C)
